From US10273222B2 (CELGENE QUANTICEL RESEARCH, INC., priority 2013, dated 2019)

Key:
[1] = target: JMJD2C (Homo sapiens (Human), UniProt Q9H3R0); assay: JMJD2C in vitro enzyme inhibition assay (TR-FRET); type: biochemical
[2] = target: Jarid1A (Homo sapiens (Human), UniProt P29375); assay: Jarid1A in vitro enzyme inhibition assay (TR-FRET); type: biochemical
Text: The enzymatic assay of Jarid1A activity is based upon Time Resolved-Fluorescence Resonance Energy Transfer (TR-FRET) detection.

[3] = target: JMJD2A (Homo sapiens (Human), UniProt O75164); assay: JMJD2A in vitro enzyme inhibition assay (TR-FRET); type: biochemical
Experimental: This assay determines the ability of a test compound to inhibit Jarid1A, Jarid1B, JMJD2C, and JMJD2A demethylase activity. […] Baculovirus expressed JMJD2A (GenBank Accession #NM_014663, AA 1-350) was purchased from BPS Bioscience (Cat#50123).
The ability of test compounds to inhibit the activity of JMJD2A was determined in 384-well plate format under the following reaction conditions: 2 nM JMJD2A, 300 nM H3K9me3-biotin labeled peptide (Anaspec cat #64360), 2 μM alpha-ketoglutaric acid in assay buffer of 50 mM HEPES, pH7.3, 0.005% Brij35, 0.5 mM TCEP, 0.2 mg/ml BSA, 50 μM sodium L-ascorbate, and 2 μM ammonium iron(II) sulfate. Reaction product was determined quantitatively by TR-FRET after the addition of detection reagent Phycolink Streptavidin-allophycocyanin (Prozyme) and Europium-anti-di-methylated histone H3 lysine 9 (H3K9me2) antibody (PerkinElmer) in the presence of 5 mM EDTA in LANCE detection buffer (PerkinElmer) at a final concentration of 50 nM and 1 nM, respectively.
The assay reaction was initiated by the following: 2 μl of the mixture of 900 nM H3K9me3-biotin labeled peptide and 6 μM alpha-ketoglutaric acid with 2 μl of 11-point serial diluted inhibitor in 3% DMSO were added to each well of plate, followed by the addition of 2 μl of 6 nM JMJD2A to initiate the reaction. The reaction mixture was incubated at room temperature for 30 minutes, and terminated by the addition of 6 μl of 5 mM EDTA in LANCE detection buffer containing 100 nM Phycolink Streptavidin-allophycocyanin and 2 nM Europium-anti-H3K9me2 antibody. Plates were read by EnVisionMultilabel Reader in TR-FRET mode (excitation at 320 nm, emission at 615 nm and 665 nm) after 1 hour incubation at room temperature. A ratio was calculated (665/615) for each well and fitted to determine inhibition constant (IC50).

[4] = target: Jarid1B (Homo sapiens (Human), UniProt Q9UGL1); assay: Jarid1B in vitro enzyme inhibition assay (TR-FRET); type: biochemical
[5] = tested on: KDM5A and KDM5B; assay: In vitro cell-based assay: tri-methyl H3K4 immuno-blotting in ZR-75-1 cells (cellular inhibition of KDM5A/B); settings: ZR-75-1 breast cancer cells, 72 hours, tri-methylated H3K4 level; read-out: IC50 ZR-75-1 cell-MOA
Experimental: This quantitative immuno-blotting assay measures the amount tri-methylated histone H3 at amino acid Lysine number 4, a specific substrate and product of the direct enzymatic activity of the histone demethylases KDM5A and KDM5B from extracts of the ZR-75-1 breast cancer cell line.
This assay is a fluorometric immunoassay for the quantification of tri-methyl H3K4 extracted from cells treated with test compound and is used as a measure of the cellular inhibition of KDM5A/B.
Extracts were prepared containing all of the cellular histone material using detergent based lysis and sonication methods. These lysates were subsequently normalized for total protein content using a colorimetric bicinchonic acid assay (MicroBCA Pierce/Thermo Scientific). Normalized cell extracts were then subjected to typical immuno-blotting procedures using NuPage reagents (Life Technologies). Electrophoretically separated histones were then transferred and immobilized using polyvinylidene difluoride membrane (Immobilon-FL Millipore). The amount of tri-methylated lysine 4 of histone H3 was detected using an antibody specific to the tri-methylated state (Cell Signaling Technologies) and quantified on an infrared imager using a densitometry software package (Odyssey CLx, Image Studio, Li-Cor). This background subtracted densitometry value was reported as a ration of the GAPDH amount for that sample and then calculated as a percent of the DMSO treated sample. The software package XL-fit (IDBS) was then used to calculate a relative IC50 value for the dilution series of a given test compound according to the equation: fit=(D+((Vmax*(x^n))/((x^n)+(Km^n)))).

[6] = target: FBXL10 (Homo sapiens (Human), UniProt Q8NHM5); assay: FBXL10 in vitro enzyme inhibition assay (AlphaScreen); type: biochemical
Outline: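 AlphaScreen read-out of H3K36me1 product, detected with anti-H3K36me1 antibody plus streptavidin donor and Protein A acceptor beads (final 10 μg/ml) in 50 mM HEPES pH 7.3, 10 mM NaCl, 0.005% Brij35, 5 mM EDTA, 2 mg/ml BSA. Beads incubated 2 h to overnight at room temperature; IC50 derived from AlphaScreen signal.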

Sequence of JMJD2C (Q9H3R0 2-372): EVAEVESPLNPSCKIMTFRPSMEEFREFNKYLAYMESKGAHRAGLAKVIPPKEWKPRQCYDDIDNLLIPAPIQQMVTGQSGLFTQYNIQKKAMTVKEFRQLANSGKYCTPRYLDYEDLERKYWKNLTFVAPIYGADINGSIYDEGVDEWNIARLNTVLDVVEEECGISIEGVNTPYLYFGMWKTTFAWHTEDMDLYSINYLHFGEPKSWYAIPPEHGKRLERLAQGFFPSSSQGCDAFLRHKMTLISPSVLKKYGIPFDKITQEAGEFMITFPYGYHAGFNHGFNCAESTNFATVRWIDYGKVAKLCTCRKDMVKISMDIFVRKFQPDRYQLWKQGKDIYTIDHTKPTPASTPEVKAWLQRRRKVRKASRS
Sequence of JMJD2A (O75164 1-350): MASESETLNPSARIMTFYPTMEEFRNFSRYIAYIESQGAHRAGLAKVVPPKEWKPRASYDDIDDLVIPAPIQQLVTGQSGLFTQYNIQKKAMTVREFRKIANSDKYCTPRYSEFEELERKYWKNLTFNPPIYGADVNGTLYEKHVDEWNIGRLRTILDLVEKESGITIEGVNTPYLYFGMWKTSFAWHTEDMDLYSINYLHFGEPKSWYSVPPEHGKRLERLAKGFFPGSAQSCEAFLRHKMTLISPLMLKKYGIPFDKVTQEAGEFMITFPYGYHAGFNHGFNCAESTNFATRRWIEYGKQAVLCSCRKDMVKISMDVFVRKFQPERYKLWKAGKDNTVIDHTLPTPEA
Sequence of Jarid1A (P29375 1-1090): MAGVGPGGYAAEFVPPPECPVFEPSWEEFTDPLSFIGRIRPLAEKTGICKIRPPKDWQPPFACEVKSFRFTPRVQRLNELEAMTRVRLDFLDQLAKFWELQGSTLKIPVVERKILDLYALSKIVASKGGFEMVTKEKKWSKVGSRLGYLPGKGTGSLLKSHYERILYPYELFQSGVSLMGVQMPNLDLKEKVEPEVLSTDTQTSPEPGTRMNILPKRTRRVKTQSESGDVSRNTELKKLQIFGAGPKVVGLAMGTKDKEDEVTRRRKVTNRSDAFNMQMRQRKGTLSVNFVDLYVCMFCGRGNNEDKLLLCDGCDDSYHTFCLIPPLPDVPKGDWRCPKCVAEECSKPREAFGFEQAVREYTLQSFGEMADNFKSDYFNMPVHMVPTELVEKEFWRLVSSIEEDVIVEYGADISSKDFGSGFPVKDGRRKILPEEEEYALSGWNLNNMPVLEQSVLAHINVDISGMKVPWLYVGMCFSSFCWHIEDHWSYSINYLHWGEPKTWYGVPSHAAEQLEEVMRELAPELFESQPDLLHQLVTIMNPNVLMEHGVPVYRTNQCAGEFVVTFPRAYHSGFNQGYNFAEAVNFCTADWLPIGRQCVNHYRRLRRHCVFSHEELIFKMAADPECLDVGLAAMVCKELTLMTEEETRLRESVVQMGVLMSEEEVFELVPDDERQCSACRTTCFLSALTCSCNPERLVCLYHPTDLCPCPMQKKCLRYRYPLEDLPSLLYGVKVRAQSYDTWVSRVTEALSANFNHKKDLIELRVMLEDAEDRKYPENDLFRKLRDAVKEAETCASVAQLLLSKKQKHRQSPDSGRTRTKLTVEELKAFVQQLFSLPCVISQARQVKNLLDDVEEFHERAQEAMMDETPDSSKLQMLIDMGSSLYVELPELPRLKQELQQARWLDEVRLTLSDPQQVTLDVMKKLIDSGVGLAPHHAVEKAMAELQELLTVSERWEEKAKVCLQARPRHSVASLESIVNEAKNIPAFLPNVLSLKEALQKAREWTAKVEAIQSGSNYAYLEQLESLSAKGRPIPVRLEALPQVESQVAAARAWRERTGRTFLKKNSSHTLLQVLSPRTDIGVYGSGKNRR
Sequence of Jarid1B (Q9UGL1 2-751): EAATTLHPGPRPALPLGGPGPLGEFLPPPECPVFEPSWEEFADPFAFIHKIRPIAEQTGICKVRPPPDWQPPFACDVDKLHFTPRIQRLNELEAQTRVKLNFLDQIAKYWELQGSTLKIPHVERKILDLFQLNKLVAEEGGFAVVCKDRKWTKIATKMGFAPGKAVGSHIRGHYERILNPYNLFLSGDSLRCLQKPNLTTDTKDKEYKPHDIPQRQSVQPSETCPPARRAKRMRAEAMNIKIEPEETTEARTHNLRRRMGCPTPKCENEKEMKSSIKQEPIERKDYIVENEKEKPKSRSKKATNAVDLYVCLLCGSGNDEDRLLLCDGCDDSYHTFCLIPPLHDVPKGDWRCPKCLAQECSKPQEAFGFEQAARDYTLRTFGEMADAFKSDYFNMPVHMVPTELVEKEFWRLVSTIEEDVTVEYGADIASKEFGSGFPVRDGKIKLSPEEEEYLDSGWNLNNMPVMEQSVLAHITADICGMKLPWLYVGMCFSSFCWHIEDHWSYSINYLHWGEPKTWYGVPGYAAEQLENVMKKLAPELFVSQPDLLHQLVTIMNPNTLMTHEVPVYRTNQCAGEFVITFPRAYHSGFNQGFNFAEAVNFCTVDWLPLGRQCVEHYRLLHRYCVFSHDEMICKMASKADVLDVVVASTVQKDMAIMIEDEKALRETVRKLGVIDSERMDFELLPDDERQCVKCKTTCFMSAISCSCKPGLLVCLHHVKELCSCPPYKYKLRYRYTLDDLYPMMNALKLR
Sequence of FBXL10 (Q8NHM5 1-650): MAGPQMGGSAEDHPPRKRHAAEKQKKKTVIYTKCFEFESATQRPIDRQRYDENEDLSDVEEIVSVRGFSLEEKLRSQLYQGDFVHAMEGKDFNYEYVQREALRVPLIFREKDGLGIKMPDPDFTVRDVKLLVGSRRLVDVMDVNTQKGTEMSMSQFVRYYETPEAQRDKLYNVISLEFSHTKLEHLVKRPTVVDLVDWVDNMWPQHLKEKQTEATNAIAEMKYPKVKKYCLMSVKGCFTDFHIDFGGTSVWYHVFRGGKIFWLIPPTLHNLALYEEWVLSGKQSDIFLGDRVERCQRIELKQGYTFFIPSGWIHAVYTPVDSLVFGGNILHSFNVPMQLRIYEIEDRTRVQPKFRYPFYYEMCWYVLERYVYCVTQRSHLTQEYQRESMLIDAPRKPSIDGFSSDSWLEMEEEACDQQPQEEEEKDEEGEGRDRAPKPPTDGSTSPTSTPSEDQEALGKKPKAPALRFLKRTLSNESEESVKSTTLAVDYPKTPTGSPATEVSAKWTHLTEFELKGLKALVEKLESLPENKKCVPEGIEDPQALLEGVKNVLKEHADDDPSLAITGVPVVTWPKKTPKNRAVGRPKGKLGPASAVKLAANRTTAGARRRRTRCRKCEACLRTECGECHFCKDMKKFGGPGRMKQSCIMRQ

| SMILES | IC50 [1] [nM] | IC50 [2] [nM] | IC50 [3] [nM] | IC50 [4] [nM] | IC50 [5] [nM] | IC50 [6] [nM] |
| --- | --- | --- | --- | --- | --- | --- |
| CC(c1ccccc1)n1cnc(-c2cc(C(=O)O)ccn2)c1 (stereo not shown) [Example 103] | ≤ 100 | ≤ 100 | ≤ 100 | ≤ 100 | 1000 to 10000 | ≤ 100 |
| O=C(O)c1ccnc(-c2cn(CCN(Cc3ccc(F)cc3)C3CC3)cn2)c1 [Example 71, 2-[1-[2-[cyclopropyl-[(4-fluorophenyl)methyl]amino]ethyl]imidazol-4-yl]pyridine-4-carboxylic acid] | ≤ 100 | ≤ 100 | ≤ 100 | ≤ 100 | 1000 to 10000 | ≤ 100 |
| O=C(O)c1ccnc(-c2cn(C3Cc4ccccc4C3)cn2)c1 [Example 99, 2-[1-(2,3-dihydro-1H-inden-2-yl)imidazol-4-yl]pyridine-4-carboxylic acid] | 100 to 1000 | ≤ 100 | 100 to 1000 | ≤ 100 | 1000 to 10000 | ≤ 100 |
| O=C(O)c1ccnc(-c2cn(CCN3CCCc4ccccc43)cn2)c1 [Example 88, 2-[1-[2-(3,4-dihydro-2H-quinolin-1-yl)ethyl]imidazol-4-yl]pyridine-4-carboxylic acid] | 100 to 1000 | ≤ 100 | ≤ 100 | ≤ 100 | 1000 to 10000 | ≤ 100 |
| O=C(O)c1ccnc(-c2cn(CCN3CCCC3)cn2)c1 [Example 43, 2-{1-[2-(pyrrolidin-1-yl)ethyl]-1H-imidazol-4-yl}pyridine-4-carboxylic acid] | ≤ 100 | ≤ 100 | ≤ 100 | ≤ 100 | > 10000 | 1000 to 10000 |
| O=C(O)c1ccnc(-c2cn(CCc3ccccc3C(F)(F)F)cn2)c1 [Example 98, 2-[1-[2-[2-(trifluoromethyl)phenyl]ethyl]imidazol-4-yl]pyridine-4-carboxylic acid] | ≤ 100 | ≤ 100 | ≤ 100 | ≤ 100 | > 10000 | ≤ 100 |
| CC(C)(Cn1cnc(-c2cc(C(=O)O)ccn2)c1)c1ccccc1Cl [Example 105, 2-[1-[2-(2-chlorophenyl)-2-methylpropyl]imidazol-4-yl]pyridine-4-carboxylic acid] | 1000 to 10000 | ≤ 100 | 100 to 1000 | ≤ 100 | 1000 to 10000 | ≤ 100 |
| Cc1ccccc1CCn1cnc(-c2cc(C(=O)O)ccn2)c1 [Example 96, 2-[1-[2-(2-methylphenyl)ethyl]imidazol-4-yl]pyridine-4-carboxylic acid] | 100 to 1000 | ≤ 100 | 100 to 1000 | ≤ 100 | 1000 to 10000 | ≤ 100 |
| CCCn1cnc(-c2cc(C(=O)O)ccn2)c1 [Example 41, 2-(1-propyl-1H-imidazol-4-yl)pyridine-4-carboxylic acid] | ≤ 100 | ≤ 100 |  | ≤ 100 | 1000 to 10000 | ≤ 100 |
| O=C(O)c1ccnc(-c2cn(CCc3ccc(F)cc3)cn2)c1 [Example 92, 2-[1-[2-(4-fluorophenyl)ethyl]imidazol-4-yl]pyridine-4-carboxylic acid] | ≤ 100 | ≤ 100 |  | ≤ 100 | 1000 to 10000 | ≤ 100 |
| COc1ccccc1CCn1cnc(-c2cc(C(=O)O)ccn2)c1 [Example 95, 2-[1-[2-(2-methoxyphenyl)ethyl]imidazol-4-yl]pyridine-4-carboxylic acid] | 100 to 1000 | ≤ 100 | 100 to 1000 | ≤ 100 | > 10000 | ≤ 100 |
| Cn1cnc(-c2cc(-c3nn[nH]n3)ccn2)c1 [Example 62, 2-(1-methyl-1H-imidazol-4-yl)-4-(2H-tetrazol-5-yl)pyridine] | > 10000 | 100 to 1000 | > 10000 | 100 to 1000 | > 10000 | ≤ 100 |

Results, then the compound that gave them:

| IC50 [1] [nM] | IC50 [2] [nM] | IC50 [3] [nM] | IC50 [4] [nM] | IC50 [5] [nM] | IC50 [6] [nM] | SMILES |
| --- | --- | --- | --- | --- | --- | --- |
| ≤ 100 | ≤ 100 | ≤ 100 | ≤ 100 | > 10000 | ≤ 100 | Cn1cnc(-c2cc(C(=O)O)ccn2)c1 [Example 1, 2-(1-methyl-1H-imidazol-4-yl)pyridine-4-carboxylic acid] |
| 100 to 1000 | ≤ 100 | 100 to 1000 | ≤ 100 | 1000 to 10000 | ≤ 100 | O=C(O)c1ccnc(-c2cn(Cc3ccccc3F)cn2)c1 [Example 102, 2-[1-[(2-fluorophenyl)methyl]imidazol-4-yl]pyridine-4-carboxylic acid] |
| 100 to 1000 | ≤ 100 | 100 to 1000 | ≤ 100 | 1000 to 10000 | ≤ 100 | Cn1cnc(-c2cc(C(=O)O)ccn2)c1-c1ccc(F)cc1 [Example 23, 2-[5-(4-fluorophenyl)-1-methyl-1H-imidazol-4-yl]pyridine-4-carboxylic acid] |
| 100 to 1000 | ≤ 100 |  | ≤ 100 | > 10000 | ≤ 100 | Cn1cnc(-c2cc(C(=O)O)ccn2)c1-c1cccc(Cl)c1 [Example 20, 2-[5-(3-chlorophenyl)-1-methyl-1H-imidazol-4-yl]pyridine-4-carboxylic acid] |
| 1000 to 10000 | ≤ 100 |  | ≤ 100 | > 10000 | 100 to 1000 | Cn1cnc(-c2cc(C(=O)O)ccn2)c1-c1ccc(C2CC2)cc1 [Example 7, 2-[5-(4-cyclopropylphenyl)-1-methyl-1H-imidazol-4-yl]pyridine-4-carboxylic acid] |
| 100 to 1000 | ≤ 100 | 100 to 1000 | ≤ 100 | 1000 to 10000 | ≤ 100 | O=C(O)c1ccnc(-c2cn(Cc3ccc(F)cc3)cn2)c1 [Example 101, 2-[1-[(4-fluorophenyl)methyl]imidazol-4-yl]pyridine-4-carboxylic acid] |
| 100 to 1000 | ≤ 100 |  | ≤ 100 | > 10000 | ≤ 100 | Cn1cnc(-c2cc(C(=O)O)ccn2)c1-c1ccc(Cl)c(F)c1 [Example 29, 2-[5-(4-chloro-3-fluorophenyl)-1-methyl-1H-imidazol-4-yl]pyridine-4-carboxylic acid] |
| 100 to 1000 | ≤ 100 | ≤ 100 | ≤ 100 | 1000 to 10000 | ≤ 100 | O=C(O)c1ccnc(-c2cn(CCc3ccccc3Cl)cn2)c1 [Example 97, 2-[1-[2-(2-chlorophenyl)ethyl]imidazol-4-yl]pyridine-4-carboxylic acid] |
